{"source": "patent US20260124292A1", "about": "“MU[…] INFLUENZA VACCINE” (priority 2022, published 2026)", "origin": "cited, not measured here", "system": "influenza A virus-specific CTL", "details": "according to Boon et al. 2006", "data": [{"sequence": "ELRSRYWAI (listed as Alphainfluenzavirus influenzae) [SEQ ID NO: 2]", "values": [{"measurement": "Immunodominance", "value": "(Intermediate"}]}, {"sequence": "SRYWAIRTR (listed as Alphainfluenzavirus influenzae) [SEQ ID NO: 3]", "values": [{"measurement": "Immunodominance", "value": "(Highly"}]}, {"sequence": "RRSGAAGAAVK (listed as Alphainfluenzavirus influenzae) [SEQ ID NO: 16]", "values": [{"measurement": "Immunodominance", "value": "(Highly"}]}, {"sequence": "CTELKLSDY [SEQ ID NO: 4]", "values": [{"measurement": "Immunodominance", "value": "(Intermediate"}]}]}
